Read-outs that look alike come from different tables or passages of the source.
Legend:
[1] = tested on: metastatic pancreatic cancer patients; experiment: Overall survival in baseline circulating biomarker subgroups of the phase 2 study; assay type: in vivo, human; parameters: Median OS: unit not given here
Source text: To establish the relationship between levels of these baseline markers and overall survival, a Cox proportional hazard model was used to calculate hazard ratios (HR) using normalized log transformed marker concentrations. This analysis tests the risk of death associated with a unit increase in the normalized log baseline biomarker and this risk is expressed as a hazard ratio. Because of the small sample size, it is difficult to dissect prognostic associations from relationships that are modified by treatment with ganitumab relative to placebo, i.e., predictive. This is because the addition of treatment effect adds a variable to the analysis that compromises the power of the test masking significant predictive relationships that may exist. However even a prognostic relationship identified in this analysis is important because it informs the hypothesized relationship between circulating bioavailable ligands and the adaptation of the tumor to IGF-1R dependent progression, and in turn sensitivity to inhibitors that block IGF-1R or downstream signaling pathways.
This allows a direct test of the predictive value of using these markers in a dichotomized way to predict OS in pancreatic cancer patients that are treated with inhibitors of IGF-1R.
To represent these relationships Kaplan-Maier plots were generated that show the OS for the high and low subgroups by plotting the fraction of patients in each sub-group that survive against time.

[2] = tested on: metastatic pancreatic cancer patients; details: for OS, HR (95% CI) for one unit increment in logAUCss / PFS, HR (95% CI) for one unit increment in logAUCss: univariate Cox model
Experimental: Multivariate analysis was performed to evaluate the effect of exposure on OS and PFS adjusting for potential confounding factors using Cox proportional hazard models with a forward selection technique. All baseline factors were initial candidates in the forward selection model. Only the most statistically significant variables were added to the final model after the forward selection process.
The effect of exposure on the incidence of selected adverse events (hearing and vestibular disorders, hepatic disorders, hyperglycemia, infusion reaction, neutropenia, rash and skin-related toxicity, thrombocytopenia, and venous embolic and thrombotic events) was summarized with descriptive statistics.
The effect of exposure on changes in selected laboratory values (aspartate transaminase, alanine transaminase, fasting glucose, total neutrophils, and platelets) was assessed by linear regression.

colorectal cancer (CRC) = details: Study Drug 6 mg/kg + panitumumab 6 mg/kg
Source text: Another study was done in subjects with colorectal cancer (CRC).

non-CRC tumors = details: Study Drug 6 mg/kg + panitumumab 6 mg/kg
[3] = Ganitumab and Placebo (logAUCss = 0)
[4] = multivariate Cox model, ganitumab-treated arm
[5] = Subject #1, Nerve Sheath, 3 mg/Kg
[6] = Subject #4, Colorectal, 10 mg/Kg

Experimental for tumors in human subjects: Each subject was assigned to one of six dosing cohorts. […] The subjects also received individualized palliative care, as appropriate, to reduce the severity of their symptoms.
Response to treatment was assessed using the Response Evaluation Criteria in Solid Tumors (RECIST) criteria as described in Therasse et al. 2000, J Natl Cancer Inst. […] Briefly, prior to administration of the first dose, each subject was given a computerized tomography (CT) scan to determine the length of the largest measurable tumor along its longest diameter (“Baseline TM (cm)” in Table 9). CT scans were used to measure the same tumors along the same diameter at certain points after initiation of treatment (“Day X Tumor (cm)” in Table 9). Each such measurement was compared to the baseline tumor measurement for the same subject to calculate the percent increase or decrease in tumor size.

Substance: Ganitumab
- difference in median OS, ganitumab treatment arm versus placebo arm ([1]; Free IGF-1 high subgroup): 7.59 months
- Median OS ([1]; IGF-2 High (>=median)): 368
- OS HR, treatment vs placebo ([1]; IGF-2 High (>=median)): 0.24
- Median OS ([1]; IGF-2 Low (<median)): 217.5
- OS HR, treatment vs placebo ([1]; IGF-2 Low (<median)): 0.95
- Median OS ([1]; IGF-BP1 High (>=median)): 170
- OS HR, treatment vs placebo ([1]; IGF-BP1 High (>=median)): 0.5
- OS HR, treatment vs placebo ([1]; IGF-BP1 Low (<median)): 0.41
- Median OS ([1]; IGF-BP2 High (>=median)): 165
- OS HR, treatment vs placebo ([1]; IGF-BP2 High (>=median)): 0.69
- Median OS ([1]; IGF-BP2 Low (<median)): 487
- OS HR, treatment vs placebo ([1]; IGF-BP2 Low (<median)): 0.19
- Median OS ([1]; IGF-BP3 High (>=median)): 487
- OS HR, treatment vs placebo ([1]; IGF-BP3 High (>=median)): 0.28
- Median OS ([1]; IGF-BP3 Low (<median)): 168
- OS HR, treatment vs placebo ([1]; IGF-BP3 Low (<median)): 0.94
- Median OS ([1]; IGF-BP4 High (>=median)): 368
- OS HR, treatment vs placebo ([1]; IGF-BP4 High (>=median)): 0.39
- Median OS ([1]; IGF-BP4 Low (<median)): 174.5
- OS HR, treatment vs placebo ([1]; IGF-BP4 Low (<median)): 0.63
- Median OS ([1]; Total IGF-1 High (>=median)): 487
- OS HR, treatment vs placebo ([1]; Total IGF-1 High (>=median)): 0.25
- Median OS ([1]; Total IGF-1 Low (<median)): 142
- OS HR, treatment vs placebo ([1]; Total IGF-1 Low (<median)): 0.59
- OS, HR (95% CI) for one unit increment in logAUCss ([2]; Ganitumab Only): 0.0421 (0.0089, 0.1983)
- PFS, HR (95% CI) for one unit increment in logAUCss ([2]; Ganitumab Only): 0.0611 (0.0160, 0.2327)
- OS, HR (95% CI) for one unit increment in logAUCss [2, 3]: 0.8288 (0.6978, 0.9845)
- PFS, HR (95% CI) for one unit increment in logAUCss [2, 3]: 0.8322 (0.7111, 0.9741)
- Log AUCss HR, effect on Overall Survival [2, 4]: 0.0842
- Log AUCss HR, effect on Progression Free Survival [2, 4]: 0.1355
- Log AUCss Parameter Estimate, effect on Overall Survival [2, 4]: −2.4742
- Log AUCss Parameter Estimate, effect on Progression Free Survival [2, 4]: −1.9986
- Wk 8 change (RECIST) (colorectal cancer (CRC)): −27%
- Wk 8 change (WHO) (colorectal cancer (CRC); CT): −39%
- best response (WHO criteria) (non-CRC tumors; subject with a GE Junction tumor): stable disease
- best response (WHO criteria) (non-CRC tumors; subject with a pancreatic tumor): stable disease
- best response (WHO criteria) (non-CRC tumors; subject with a thyroid tumor): progressive disease
- time to significant symptomatic relief after the first dose (tumors in human subjects; CR subject, Ewing's sarcoma, 12 mg/kg): two
- response according to RECIST at day 434 (tumors in human subjects; CR subject, Ewing's sarcoma, 12 mg/kg at 14 day intervals): CR (100% reduction in tumor dimension)
- PET scan, uptake of labeled glucose by tumor (tumors in human subjects; CR subject, Ewing's sarcoma, 12 mg/kg, day 50): no detectable uptake of labeled glucose
- decrease in tumor size from baseline (RECIST) (tumors in human subjects; CR subject, Ewing's sarcoma, 12 mg/kg, day 50, CT scan): 78%
- maximum RECIST tumor dimension reduction (tumors in human subjects; PR subject, mid gut carcinoid tumor, 3 mg/kg at 14 day intervals): 63%
- RECIST tumor dimension decrease (tumors in human subjects; PR subject, mid gut carcinoid tumor, 3 mg/kg, after 33 weeks in the trial): 48%
- RECIST tumor dimension (tumors in human subjects; PR subject, mid gut carcinoid tumor, 3 mg/kg, after 33 weeks in the trial, baseline 13.1 cm): 6.8 cm
- Day 50 Tumor (cm) (tumors in human subjects; [5]): 1.4 cm
- Day 50 Tumor, percent change vs baseline (tumors in human subjects; [5]): (+27%)
- Day 50 Tumor (cm) (tumors in human subjects; Subject #2, Prostate, 10 mg/Kg): 18.8 cm
- Day 50 Tumor, percent change vs baseline (tumors in human subjects; Subject #2, Prostate, 10 mg/Kg): (+21%)
- Day 50 Tumor (cm) (tumors in human subjects; Subject #3, Ovarian, 20 mg/Kg): 18.6 cm
- Day 50 Tumor, percent change vs baseline (tumors in human subjects; Subject #3, Ovarian, 20 mg/Kg): (+17%)
- Day 50 Tumor (cm) (tumors in human subjects; [6]): 45.3 cm
- Day 50 Tumor, percent change vs baseline (tumors in human subjects; [6]): (+7%)
